The text below walks through data of US20150302140A1, “IN SILICO IDENTIFICATION OF CANCER MOLECULAR SIGNALING PATHWAYS AND DRUG CANDIDATES” (H. LEE MOFFITT CANCER CENTER AND RESEARCH INSTITUTE, INC., priority 2012, published 2015).

Format in all cases: cell-based
The subject of one experiment is HeyA8 OVCA cells. The experiment can be described thus: In vitro scratch assay (cell migration). Particulars: HeyA8, 25 mM or 50 mM artesunate, imaged days 0-2; DMSO vehicle closed gap within 2 days. The protocol:
The effects of pathway inhibition on OVCA cell metastatic properties were investigated using the in vitro scratch assay. HeyA8 OVCA cells were maintained in RPMI 1640 medium (Invitrogen) supplemented with 10% fetal bovine serum (FBS; Fisher Scientific, Pittsburgh, Pa.), 1% sodiumpyruvate, 1% penicillin/streptomycin (Cellgro, Manassas, Va.), and 1% nonessential amino acids (HyClone, Hudson, N.H.). Monolayers, 75-80% confluent, were cultured in serum-free media for 4 hours and then mechanically disrupted to create a wound using a 1 mL pipette tip. Culture plates were washed twice with serum-free media to remove floating cells and then incubated with media containing 10% FBS and either vehicle (dimethylsulfoxide [DMSO]) or drug. The DMSO concentration was maintained below 0.5% so as not to influence cell growth or migration. The underside of the culture plate by the wound area was marked with a Sharpie for reference, and wounds were imaged by phase-contrast microscopy on days 0, 1, and 2.

Another experiment concerns five OVCA cell lines. Kind of experiment: MTS assay, summary over five OVCA cell lines. Particulars: for IC50: five OVCA cell lines, 72 hours, MTS. The source says: (§1) Ovarian cancer cell lines were either obtained from the European Collection of Cell Cultures, Salisbury, England (A2780S), or were kind gifts from Dr. Patricia Kruk, Department of Pathology, College of Medicine, University of South Florida, Tampa, Fla., and Susan Murphy, PhD, Dept of OB/GYN, Division of GYN Oncology, Duke University, Durham, N.C. (HeyA8, OVCAR2, OVCAR8, and OVCA420). Cell lines were maintained in RPMI-1640 (Invitrogen; Carlsbad, Calif.) supplemented with 10% fetal bovine serum (Fisher Scientific; Pittsburgh, Pa.), 1% sodium pyruvate, 1% penicillin/streptomycin, and 1% nonessential amino acids (HyClone; Hudson, N.H.). Mycoplasma testing was performed every 6 months following manufacturer's protocol (Lonza, Rockland, Me.).
(§2) The MTS assay was used to assess viability of the OVCA cell lines. For the assays, 3-5×10^4 cells in 100 μL were plated to each well of a 96-well plate and allowed to adhere overnight at 37° C. and 5% CO2. The following day, cells were incubated with increasing concentrations of drug for 72 hours. Cell viability was analyzed using the CellTiter96® MTS assay kit (Promega, Madison, Wis.). Three replicate wells were used for each drug concentration, and an additional three control wells received a diluent control without drug. After drug incubation, the optical density of each well was read at 490 nm using a SpectraMax 190 microplate reader (Molecular Devices Inc., Sunnyvale, Calif.). Percent cell survival was expressed as (control-treated)/(control-blank)×100. All experiments were performed three times, or the minimum number of times to ensure reproducibility and accuracy of the results.
The cytotoxic effects of continuous exposure to dasatinib and artesunate were assessed for five OVCA cell lines at 72 hours using the MTS assay (Table 5).

Another experiment has as its system HeyA8 OVCA cell. The experiment can be described thus: HeyA8 cell proliferation under artesunate.
Another experiment has as its system HEYA8. The experiment can be described thus: MTS cell proliferation/viability assay, 72 hours drug exposure. Particulars: HEY A8, log10 of IC50, uM.
Excerpt: as §1, §2

A further experiment has as its system OVCA2. Described as above. The settings on record: log10 of IC50, uM.
Excerpt: as §1, §2

Another experiment relates to OVCA8. The description is as above. The settings on record: log10 of IC50, uM.
Excerpt: as §1, §2

For a further experiment, the system named is OVCA420. The experiment is described as above. Particulars: OVCA 420, log10 of IC50, uM.
Excerpt: as §1, §2

The subject of a further experiment is A2780S. The experiment is described as above. Particulars: Homo sapiens, log10 of IC50, uM.
Excerpt: as §1, §2

SMILES strings stand for the structures. Entries after “also recorded” stand apart in the source; their conditions may differ. Read-outs that look alike come from different tables or passages of the source.

`C[C@H]1[C@H](OC(=O)CCC(=O)O)O[C@@H]2O[C@@]3(C)CC[C@H]4[C@H](C)CC[C@@H]1[C@@]24OO3` [Artesunate]: the “ability of cells to migrate into the denuded area / fill in the gap of a scratch test” value in the experiment on HeyA8 OVCA cells is given as “impaired the ability of the cells to migrate; also recorded: impaired in their ability to fill in the gap”. Also, the IC50 was 4290 nM in the experiment with five OVCA cell lines (log10 value, read-out: median IC50 (log 10) (converted)); 88.2 to 1290 nM with five OVCA cell lines (log10 values, read-out: range of IC50 (log 10) (converted)); 7130 nM in the experiment on five OVCA cell lines (read-out: median IC50); 1230 to 19300 nM with five OVCA cell lines (read-out: range of IC50); 7.92 µM in the experiment on HEYA8; 1.31 µM with OVCA2. Further, the IC50 was 5.9 µM with OVCA8, 19.3 µM in the experiment on OVCA420 and 1.23 µM in the experiment on A2780S. Besides, in the experiment with five OVCA cell lines (panel of OVCA cells), the “anti-proliferative activity against a panel of OVCA cells” value was “anti-proliferative activity”. Further, the “decrease of HeyA8 OVCA cell proliferation” value is “approximately 42%” in the experiment on HeyA8 OVCA cell (25 mM artesunate) and about 64% in the experiment with HeyA8 OVCA cell (50 mM artesunate).
As for `Cc1nc(Nc2ncc(C(=O)Nc3c(C)cccc3Cl)s2)cc(N2CCN(CCO)CC2)n1` [Dasatinib], the IC50 in the experiment with five OVCA cell lines (read-out: mean IC50) was 577 nM; with five OVCA cell lines (read-out: range of IC50), 214 to 953 nM; in the experiment on HEYA8, 0.215 µM; in the experiment on OVCA2 it was 0.953 µM; in the experiment on OVCA8 it was 0.37 µM; in the experiment with OVCA420, 0.431 µM. Further, in the experiment on A2780S, the midpoint of inhibition, the IC50, lay at 0.918 µM.
